Measured values as given in patent publication US4996358A, “Hydroxylamine bearing amino acid derivatives as collagenase inhibitors” (Hoffmann-La Roche Inc., priority 1986, dated 1991).

What follows are compounds tested against T1, human synovial collagenase (Homo sapiens, UniProt P03956) (assay: In vitro inhibition of collagenase from human synovial fibroblast culture (synthetic peptide substrate cleavage)). Settings: trypsin-activated procollagenase; 0.5 mmol N-acetyl-L-prolyl-L-leucylglycyl-L-leucyl-L-leucylglycyl ester substrate; borate buffer pH 7.5, CaCl2; 37° C., 1 hour; read-out: Inhibitory activity against human synovial collagenase IC50.
T1 construct: endogenous in cells; host or cells: human synovial fibroblast culture; procollagenase partially purified from the culture medium
T1 sequence (P03956 100-469): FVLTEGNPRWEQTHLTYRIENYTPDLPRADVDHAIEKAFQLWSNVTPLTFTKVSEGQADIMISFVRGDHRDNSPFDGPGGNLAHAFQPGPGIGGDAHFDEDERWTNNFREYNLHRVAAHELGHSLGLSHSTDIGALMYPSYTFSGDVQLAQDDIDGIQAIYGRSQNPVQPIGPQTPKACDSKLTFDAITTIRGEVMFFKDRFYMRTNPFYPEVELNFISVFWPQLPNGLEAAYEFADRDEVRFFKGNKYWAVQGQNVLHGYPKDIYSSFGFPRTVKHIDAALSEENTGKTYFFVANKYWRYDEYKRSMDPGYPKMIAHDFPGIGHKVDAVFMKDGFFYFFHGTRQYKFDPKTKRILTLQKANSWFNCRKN
Format: biochemical
Experimental: Procollagenase was partially purified from the cell culture medium by negative adsorption on DEAE Sephadex A-50 at pH 8.1 and activated by treatment with tryspin. The inhibitory activity of the present hydroxylamine derivatives was determined using a synthetic substrate, N-acetyl-L-prolyl-L-leucylglycyl-L-leucyl-L-leucylglycyl […], for this collagenase. The enzyme was added to a solution of 0.5 mmol of substrate in 50 mmol of borate buffer (pH 7.5) containing 1 mmol of calcium chloride and a known concentration of peptide derivative. The resulting solution was incubated at 37° C. for 1 hour. Enzyme digestion of the substrate was terminated by the addition of an equal volume of 2% (weight/volume) sodium hydrogen carbonate solution in 50% aqueous methanol containing 0.1% (weight/volume) of picrylsulfonic acid. The solution obtained was incubated at 37° C. for an additional 1 hour in order to allow reaction between the L-leucyl-L-leucyl-glycyl ethyl ester generated by the cleavage of the substrate and the picrylsulfonic acid to give trinitrophenyl-L-leucyl-L-leucylglycyl ethyl ester. The reaction was terminated and stabilized by acidification with IN hydrochloric acid. The concentration of trinitrophenyl-L-leucyl-L-leucylglycyl ethyl ester was determined by spectrophotometry at 335 nm. The IC50 is that concentration of hydroxylamine derivative of formula I of the invention in the enzyme digestion which reduces substrate cleavage to 50% of that achieved by the enzyme alone.

Question: How did the IC50 turn out when `CCOC(=O)CNC(=O)[C@H](CC(C)C)NC(=O)C(CC(C)C)CN(O)C=O` (mixture of isomers) [C, [N-formyl-N-hydroxy 2(RS)-isobutyl-3-aminopropionyl]-L-leucylglycine ethyl ester] was run?
Answer: Its IC50 is 300 nM.

Question: For `CCOC(=O)CNC(=O)[C@H](CC(C)C)NC(=O)[C@@H](CC(=O)NO)CC(C)C` [A, [4-(N-Hydroxyamino) 2(R)-isobutylsuccinyl]-L-leucylglycine ethyl ester], which IC50 is on record?
Answer: Its IC50 is 25 nM.

Question: Which IC50 does the source give for `CCOC(=O)[C@H](C)NC(=O)[C@H](CC(C)C)NC(=O)[C@@H](CC(=O)NO)CC(C)C` [B, [4-(N-hydroxyamino) 2(R)-isobutylsuccinyl]-L-leucyl-L-alanine ethyl ester] here?
Answer: Its IC50 is 8.5 nM.

Question: Which IC50 does the source give for `CCOC(=O)[C@H](C)NC(=O)[C@H](CCCCNC(=O)CN)NC(=O)[C@@H](CC(=O)NO)CC(C)C` [D, N^α -[4-(N-hydroxyamino) 2(R)-isobutylsuccinyl]-N^ε -glycyl-L-lysyl-L-alanine ethyl ester] here?
Answer: The IC50 was 30 nM.

Question: For `CC(C)C[C@H](CC(=O)NO)C(=O)NC1CCCCCCCCCCNC1=O` (stereo partly drawn) [E, [4-(N-hydroxyamino) 2(R)-isobutylsuccinyl]-3(RS)-aminolaurolactam], which IC50 is on record?
Answer: The IC50 was 38 nM.

Question: For `CCOC(=O)CNC(=O)[C@H](CC(C)C)NC(=O)[C@H](CC(C)C)[C@H](CCCCN1C(=O)c2ccccc2C1=O)C(=O)NO` [F, [4-(N-hydroxyamino) 3(S)-phthaloylaminobutyl-2(R)-isobutylsuccinyl]-L-leucylglycine ethyl ester], which IC50 is on record?
Answer: The IC50 was 12 nM.
